Assay results as given in patent US9453017B2, “Antiviral therapies with phospholipase D inhibitors” (Vanderbilt University, priority 2011, dated 2016).
Like-named read-outs stand apart in the source and are kept apart here.

Columns and labels:
influenza virus = assay type: cell-based; conditions: 10 μM compound; compared to vehicle; FIG. 2
PR8 influenza A virus = experiment: In vivo mouse model of influenza infection, 30 mg/kg (FIGS. 3, 4); conditions: 30 mg/kg intraperitoneal twice daily for 7 days; for survival of infected mice: FIG. 4
Protocol: A mouse model of influenza infection was used to test the in vivo efficacy of representative disclosed compounds. Compounds were administered at 30 mg/kg and the mice were infected with PR8 influenza A virus. Briefly, C57BL/6J mice (female 8- to 10-wk-old; purchased from The Jackson Laboratory and held under pathogen-free conditions at St. Jude Children's Research Hospital) were used in these studies. Mice were anesthetized by i.p. injection with Avertin (2,2,2-tribromethanol; prepared in-house) before intranasal (i.n.) infection with 80% infective dose (EID80) units of the PR8 influenza A virus in PBS. Mice were administered either the indicated PLD inhibitor (30 mg/kg) or vehicle intraperitoneal starting at 24 hr per exposure. Compounds were administered twice daily for 7 days and subjects were measured for changes in body weight (FIG. 3) or survival (FIG. 4) as a function of PLD inhibitor administration. Mice were sacrificed if moribund.

phospholipase D (PLD) = assay type: cell-based, human; conditions: 10 μM; A549 cells infected with California/04/2009 at 1 MOI; 6 hours post-infection; FIG. 6
[1] = test system: A/Brisbane/59/2007 (H1N1); assay type: cell-based, influenza virus; conditions: for infected cells, A/Brisbane/59/2007: 10 μM, vs DMSO vehicle
[2] = test system: A/California/04/2009 (H1N1); assay type: cell-based, influenza virus
[3] = test system: clathrin in A549 cells infected with A/Brisbane/59/07; experiment: Diffuse infection model, clathrin accumulation (FIG. 8a-b); assay type: cell-based, human
Protocol: (§1) A549 cells were seeded onto chamber slides and allowed to adhere overnight. The cells were washed with PBS, and serum-free medium containing treatment was added to the cells. After one hour of treatment, the medium was removed and replaced with serum-free medium containing treatment and 0.05 MOI influenza virus. The infected cultures were kept at 4° C. for 15 minutes before being incubated at 37° C. At appropriate times, cultures were removed and fixed with […] and processed for microscopy as above. Z stacks were acquired using a Zeiss LSM 510 microscope, and images were analyzed with ImageJ (Java-based software available from NIH). Data was processed as above.
(§2) Samples were fixed in 4% formaldehyde, permeabilized with 0.3% Triton X-100, and then exposed to antisera targeting proteins of interest and corresponding fluorescent secondary antibodies alongside DAPI to visualize nuclei. Focal infections were imaged and processed using a Nikon C1Si and NIS Elements software. Confocal images were captured with a Zeiss LSM 510 NLO Meta and analyzed with Zeiss Zen 2011 software and ImageJ.
(§3) (i) Quantitation of the area of positive Mx1 staining, n=4 for DMSO and n=5 for drug treatments. ANOVA and Dunnett's post test were used to determine significance of changes when PLD inhibitors were used, and a t-test was used when cells were treated with alcohol, * p<0.05, ** p<0.01, ***, p<0.001, **** p<0.0001. Data in (b, d, f, i) is mean±SEM, n=3 fields of at least 15 cells.

[4] = test system: RAB5 and CD63 in A549 cells infected with A/California/04/2009; experiment: Diffuse infection model, RAB5 and CD63 recruitment (FIG. 8c-f); assay type: cell-based, human
Protocol: as §1, §2, §3

[5] = test system: A549 cells infected with A/Puerto Rico/8/1934; experiment: Viral nucleoprotein (NP) / Rab11 trafficking (FIG. 8g); assay type: cell-based, human; conditions: 5 μM; A/Puerto Rico/8/1934, MOI=5; 16 hr infection
Description: as §2, §3

[6] = test system: PR8 (A/Puerto Rico/8/1934); experiment: Lethal influenza infection in mice, JWJ 13 mg/kg (FIG. 9); assay type: in vivo, mouse
[7] = Pharmacokinetics after intraperitoneal injection in mice (FIG. 15); assay type: in vivo; conditions: mouse
Protocol: The pharmacokinetic behavior of a representative disclosed PLD inhibitor of the present invention was assessed following intraperitoneal administration in a mouse model. Briefly, mice were administered a single dose of the PLD inhibitor VU0364739 (10 mg/kg) by intraperitoneal injection. Tissue (brain, lung, and liver) and plasma samples were isolated following euthanizing animals (N=2 for each time point) at the indicated time points (see FIG. 15). The samples were flash frozen and stored at −80° C. Analysis was carried out by LC-MS/MS following extraction.

A/Puerto Rico/8/1934 = experiment: Traditional plaque assay in MDCK cells (FIG. 14a); conditions: 10 μM, vs DMSO treated control
influenza virus strains = assay type: cell-based
[8] = 50 minutes post-infection, 0.05 MOI, vs DMSO
[9] = 80 minutes post-infection, 0.05 MOI, vs DMSO
[10] = 10 μM PLD inhibitor, vs DMSO control

O=C(NCCN1CCC2(CC1)C(=O)NCN2c1cccc(F)c1)c1ccc2ccccc2c1 [No. 1, N-(2-(1-(3-fluorophenyl)-4-oxo-1,3,8-triazaspiro[4.5]decan-8-yl)ethyl)-2-naphthamide]
infection of A549 cells (influenza virus): blocked infection of A549 cells
survival of infected mice (PR8 influenza A virus): survival improved
formation of PtdBuOH (phospholipase D (PLD)): inhibited
protection from A/Brisbane/59/2007 infection [1]: still significantly protected
infected cells, A/Brisbane/59/2007 [1]: significantly fewer (p<0.001) infected cells
protection from A/California/04/2009 infection [2]: protected (p<0.05)
protection from A/California/04/2009 infection ([2]; 10 μM, […], vs vehicle control): significant protection
clathrin accumulation [3, 8]: accumulated less clathrin
clathrin accumulation [3, 9]: persisted at least until 80 minutes
CD63 accumulation [4, 10]: significantly less CD63
viral nucleoprotein (NP) trafficking [5]: trafficking was disrupted
less likely to die ([6]; 13 mg/kg intraperitoneal, 4000 EID50 PR8, Log-Rank p=0.0061, FIG. 9b): about 27%
mice that survived (of cohort) ([6]; 13 mg/kg intraperitoneal, 4000 EID50 PR8, vehicle one out of 42): 12/38
recovery of weight lost ([6]; 13 mg/kg intraperitoneal, 4000 EID50 PR8, vs vehicle): recovered the weight lost more quickly
weight loss ([6]; 13 mg/kg intraperitoneal, 4000 EID50 PR8, vs vehicle, FIG. 9a): lost significantly less weight
virus in lungs (plaque assay) ([6]; 8 hours after infection, p=0.0017, FIG. 9c): significantly less virus
innate immune response ([6]; 8 hours after infection, vs vehicle): more activated innate immune response
accumulation in liver and lung ([7]; in vivo, ip, 10 mg/kg): elevated accumulation in liver and lung compared to plasma
accumulation in brain ([7]; single dose 10 mg/kg intraperitoneal, 15 min to 3 hr post-administration): appeared to be constant
exposure in tissues (brain, lung, liver) and plasma ([7]; single dose 10 mg/kg intraperitoneal, FIG. 15): sustained exposure in the tissues examined and in plasma over a period of at least three hours
plaque formation (A/Puerto Rico/8/1934): less plaque formation

C[C@@H](CN1CCC(n2c(=O)[nH]c3cc(Br)ccc32)CC1)NC(=O)[C@@H]1C[C@@H]1c1ccccc1 [No. 2, (1R,2S)-N-((S)-1-(4-(5-bromo-2-oxo-2,3-dihydro-1H-benzo[d]imidazol-1-yl)piperidin-1-yl)propan-2-yl)-2-phenylcyclopropanecarboxamide]
infection of A549 cells (influenza virus): blocked infection of A549 cells
survival of infected mice (PR8 influenza A virus): particularly profound
weight loss associated with virus infection (PR8 influenza A virus; vs vehicle (10% Tween 80), through about day 11 post-infection, FIG. 3): trend of the test compound to protect infected mice against weight loss
protection from A/Brisbane/59/2007 infection [1]: still significantly protected
infected cells, A/Brisbane/59/2007 [1]: significantly fewer (p<0.001) infected cells
clathrin accumulation [3, 8]: accumulated less clathrin
clathrin accumulation [3, 9]: persisted at least until 80 minutes
CD63 accumulation [4, 10]: significantly less CD63
viral nucleoprotein (NP) trafficking [5]: trafficking was disrupted
plaque formation (A/Puerto Rico/8/1934): less plaque formation

O=C(NCCN1CCC(n2c(=O)[nH]c3ccccc32)CC1)c1ccc2ccccc2c1 [No. 3, N-(2-(4-(2-oxo-2,3-dihydro-1H-benzo[d]imidazol-1-yl)piperidin-1-yl)ethyl)-2-naphthamide]
infection of A549 cells (influenza virus): blocked infection of A549 cells
protection from A/Brisbane/59/2007 infection [1]: still significantly protected
infected cells, A/Brisbane/59/2007 [1]: significantly fewer (p<0.001) infected cells
protection from A/California/04/2009 infection ([2]; 10 μM, […], vs vehicle control): significant protection
clathrin accumulation [3, 8]: accumulated less clathrin
CD63 accumulation [4, 10]: significantly less CD63

CCCCO [n-butanol, reference compound]
virus infection of A549 cells (influenza virus strains): has a significant effect on virus infection of A549 cells
protection from productive infection, A/Brisbane/59/2007 [1]: significantly protected from a productive infection
protection from productive infection, A/California/04/2009 [2]: significantly protected from a productive infection
clathrin accumulation ([3]; 0.6% alcohol, 80 minutes after infection, compared to tert-butanol): significantly less clathrin had accumulated
CD63 accumulation ([4]; 0.6% alcohol, vs respective control (tert-butanol)): significantly less CD63

CC(C)(C)O [tert-butanol]
virus infection of A549 cells (influenza virus strains): does not have any effect on virus infection of A549 cells
